Measured values published in PubChem BioAssay AID2060908 (Molecular Pharmacology Branch, DTP, NCI, 2025).

System: 186277-243-T-J2-PDC complex spheroids, viability
Assay: Anticancer human tumor 186277-243-T-J2-PDC patient-derived colon adenocarcinoma cell line growth inhibition [RAS]
Settings: for viability, T/C: stronger effect = lower value
Procedure, shortened: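 Tumour cells grown as complex spheroids with HUVEC endothelial cells and mesenchymal stem cells, treated with RAS pathway inhibitor combinations. Each agent spans half-log steps from near clinical Cmax, or 10 microM where Cmax is unknown.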

[1] = curve of first compound, second compound 0.00316 µM
[2] = curve of first compound, second compound 0.01 µM
[3] = curve of first compound, second compound 0.0316 µM
[4] = curve of first compound, second compound 0.1 µM
[5] = curve of first compound, second compound 0.316 µM
[6] = curve of first compound, second compound 1 µM
[7] = second compound 0.00316 µM, first compound 0.0316 µM
[8] = second compound 0.00316 µM, first compound 0.1 µM
[9] = second compound 0.00316 µM, first compound 0.316 µM
[10] = second compound 0.00316 µM, first compound 1 µM
[11] = second compound 0.01 µM, first compound 0.0316 µM
[12] = second compound 0.01 µM, first compound 0.1 µM
[13] = second compound 0.01 µM, first compound 0.316 µM
[14] = second compound 0.01 µM, first compound 1 µM
[15] = second compound 0.0316 µM, first compound 0.0316 µM
[16] = second compound 0.0316 µM, first compound 0.1 µM
[17] = second compound 0.0316 µM, first compound 0.316 µM
[18] = second compound 0.0316 µM, first compound 1 µM
[19] = second compound 0.1 µM, first compound 0.0316 µM
[20] = second compound 0.1 µM, first compound 0.1 µM
[21] = second compound 0.1 µM, first compound 0.316 µM
[22] = second compound 0.1 µM, first compound 1 µM
[23] = second compound 0.316 µM, first compound 0.0316 µM
[24] = second compound 0.316 µM, first compound 0.1 µM
[25] = second compound 0.316 µM, first compound 0.316 µM
[26] = second compound 0.316 µM, first compound 1 µM
[27] = second compound 1 µM, first compound 0.0316 µM
[28] = second compound 1 µM, first compound 0.1 µM
[29] = second compound 1 µM, first compound 0.316 µM
[30] = second compound 1 µM, first compound 1 µM
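Also: spheroids exposed to compounds for 7 days before viability read.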

Compound: CC(Nc1ccc2c(c1)OCCn1cc(N3C(=O)OCC3C(F)F)nc1-2)C(N)=O (stereo unspecified) + C=CC(=O)N1CCN(c2nc(OCC3CCCN3C)nc3c(F)c(-c4nc(N)cc(C)c4C(F)(F)F)c(Cl)cc23)C(C)C1
- IC50 [1]: 0.509 µM
- IC50 [2]: 0.46 µM
- IC50 [3]: 0.771 µM
- IC50 [4]: 1.02 µM
- IC50 [5]: 0.453 µM
- IC50 [6]: 0.344 µM
- viability, T/C [7]: 109%
- viability, T/C [8]: 108%
- viability, T/C [9]: 58.9%
- viability, T/C [10]: 40.8%
- viability, T/C (second compound 0.00316 µM, first compound 3.16 µM): 34.7%
- viability, T/C (second compound 0.00316 µM, first compound 10 µM): 35%
- viability, T/C [11]: 102%
- viability, T/C [12]: 109%
- viability, T/C [13]: 57.3%
- viability, T/C [14]: 42%
- viability, T/C (second compound 0.01 µM, first compound 3.16 µM): 36.7%
- viability, T/C (second compound 0.01 µM, first compound 10 µM): 25.3%
- viability, T/C [15]: 90.2%
- viability, T/C [16]: 105%
- viability, T/C [17]: 70.3%
- viability, T/C [18]: 47.1%
- viability, T/C (second compound 0.0316 µM, first compound 3.16 µM): 37.4%
- viability, T/C (second compound 0.0316 µM, first compound 10 µM): 33.5%
- viability, T/C [19]: 82.8%
- viability, T/C [20]: 99.9%
- viability, T/C [21]: 72.8%
- viability, T/C [22]: 50.5%
- viability, T/C (second compound 0.1 µM, first compound 3.16 µM): 42.8%
- viability, T/C (second compound 0.1 µM, first compound 10 µM): 31.2%
- viability, T/C [23]: 105%
- viability, T/C [24]: 103%
- viability, T/C [25]: 55.3%
- viability, T/C [26]: 42.5%
- viability, T/C (second compound 0.316 µM, first compound 3.16 µM): 36.1%
- viability, T/C (second compound 0.316 µM, first compound 10 µM): 33.7%
- viability, T/C [27]: 93.3%
- viability, T/C [28]: 98.5%
- viability, T/C [29]: 51%
- viability, T/C [30]: 44.1%
- viability, T/C (second compound 1 µM, first compound 3.16 µM): 41.5%
- viability, T/C (second compound 1 µM, first compound 10 µM): 28.3%

Compound: C=CC(=O)Nc1cc(Nc2nccc(-c3cn(C)c4ccccc34)n2)c(OC)cc1N(C)CCN(C)C + C=CC(=O)N1CCN(c2nc(OCC3CCCN3C)nc3c(F)c(-c4nc(N)cc(C)c4C(F)(F)F)c(Cl)cc23)C(C)C1
- IC50 [1]: > 1 µM
- IC50 [2]: > 1 µM
- IC50 [3]: > 1 µM
- IC50 [4]: > 1 µM
- IC50 [5]: > 1 µM
- IC50 [6]: > 1 µM
- viability, T/C (second compound 0.00316 µM, first compound 0.00316 µM): 82.3%
- viability, T/C (second compound 0.00316 µM, first compound 0.01 µM): 89.4%
- viability, T/C [7]: 89.8%
- viability, T/C [8]: 80.5%
- viability, T/C [9]: 97.4%
- viability, T/C [10]: 110%
- viability, T/C (second compound 0.01 µM, first compound 0.00316 µM): 96.1%
- viability, T/C (second compound 0.01 µM, first compound 0.01 µM): 88.2%
- viability, T/C [11]: 89.8%
- viability, T/C [12]: 94%
- viability, T/C [13]: 107%
- viability, T/C [14]: 77.3%
- viability, T/C (second compound 0.0316 µM, first compound 0.00316 µM): 84.8%
- viability, T/C (second compound 0.0316 µM, first compound 0.01 µM): 91.6%
- viability, T/C [15]: 93.2%
- viability, T/C [16]: 96.1%
- viability, T/C [17]: 99.1%
- viability, T/C [18]: 97%
- viability, T/C (second compound 0.1 µM, first compound 0.00316 µM): 89.6%
- viability, T/C (second compound 0.1 µM, first compound 0.01 µM): 85%
- viability, T/C [19]: 79.5%
- viability, T/C [20]: 109%
- viability, T/C [21]: 126%
- viability, T/C [22]: 86.8%
- viability, T/C (second compound 0.316 µM, first compound 0.00316 µM): 89.4%
- viability, T/C (second compound 0.316 µM, first compound 0.01 µM): 94.3%
- viability, T/C [23]: 103%
- viability, T/C [24]: 86.5%
- viability, T/C [25]: 130%
- viability, T/C [26]: 98.9%
- viability, T/C (second compound 1 µM, first compound 0.00316 µM): 109%
- viability, T/C (second compound 1 µM, first compound 0.01 µM): 78.8%
- viability, T/C [27]: 91.9%
- viability, T/C [28]: 104%
- viability, T/C [29]: 82.1%
- viability, T/C [30]: 81.2%

Compound: CCC(CC)c1cc(NC2CCC(N)C2)n2nccc2n1 (stereo unspecified) + CCn1c(-c2cc(N3CCN(C)CC3)cnc2C(C)OC)c2c3cc(ccc31)-c1csc(n1)CC(NC(=O)C1CC1C)C(=O)N1CCCC(N1)C(=O)OCC(C)(C)C2
- IC50 (curve of first compound, second compound 0.000949 µM): 1.84 µM
- IC50 (curve of first compound, second compound 0.003 µM): 1.73 µM
- IC50 (curve of first compound, second compound 0.00949 µM): 0.419 µM
- IC50 (curve of first compound, second compound 0.03 µM): < 0.0316 µM
- IC50 (curve of first compound, second compound 0.0949 µM): < 0.0316 µM
- IC50 (curve of first compound, second compound 0.3 µM): < 0.0316 µM
- viability, T/C (second compound 0.000949 µM, first compound 0.0316 µM): 123%
- viability, T/C (second compound 0.000949 µM, first compound 0.1 µM): 115%
- viability, T/C (second compound 0.000949 µM, first compound 0.316 µM): 109%
- viability, T/C (second compound 0.000949 µM, first compound 1 µM): 101%
- viability, T/C (second compound 0.000949 µM, first compound 3.16 µM): 4.75%
- viability, T/C (second compound 0.000949 µM, first compound 10 µM): 0.22%
- viability, T/C (second compound 0.003 µM, first compound 0.0316 µM): 99.4%
- viability, T/C (second compound 0.003 µM, first compound 0.1 µM): 100%
- viability, T/C (second compound 0.003 µM, first compound 0.316 µM): 107%
- viability, T/C (second compound 0.003 µM, first compound 1 µM): 91.9%
- viability, T/C (second compound 0.003 µM, first compound 3.16 µM): 3.89%
- viability, T/C (second compound 0.003 µM, first compound 10 µM): 0.17%
- viability, T/C (second compound 0.00949 µM, first compound 0.0316 µM): 55.5%
- viability, T/C (second compound 0.00949 µM, first compound 0.1 µM): 54.6%
- viability, T/C (second compound 0.00949 µM, first compound 0.316 µM): 57.5%
- viability, T/C (second compound 0.00949 µM, first compound 1 µM): 33%
- viability, T/C (second compound 0.00949 µM, first compound 3.16 µM): 3.19%
- viability, T/C (second compound 0.00949 µM, first compound 10 µM): 0.17%
- viability, T/C (second compound 0.03 µM, first compound 0.0316 µM): 15.8%
- viability, T/C (second compound 0.03 µM, first compound 0.1 µM): 17%
- viability, T/C (second compound 0.03 µM, first compound 0.316 µM): 18.1%
- viability, T/C (second compound 0.03 µM, first compound 1 µM): 9.82%
- viability, T/C (second compound 0.03 µM, first compound 3.16 µM): 3.01%
- viability, T/C (second compound 0.03 µM, first compound 10 µM): 0.19%
- viability, T/C (second compound 0.0949 µM, first compound 0.0316 µM): 8.36%
- viability, T/C (second compound 0.0949 µM, first compound 0.1 µM): 8.25%
- viability, T/C (second compound 0.0949 µM, first compound 0.316 µM): 9.17%
- viability, T/C (second compound 0.0949 µM, first compound 1 µM): 5.58%
- viability, T/C (second compound 0.0949 µM, first compound 3.16 µM): 2.44%
- viability, T/C (second compound 0.0949 µM, first compound 10 µM): 0.29%
- viability, T/C (second compound 0.3 µM, first compound 0.0316 µM): 7.09%
- viability, T/C (second compound 0.3 µM, first compound 0.1 µM): 6.68%
- viability, T/C (second compound 0.3 µM, first compound 0.316 µM): 6.45%
- viability, T/C (second compound 0.3 µM, first compound 1 µM): 4.66%
- viability, T/C (second compound 0.3 µM, first compound 3.16 µM): 2.73%
- viability, T/C (second compound 0.3 µM, first compound 10 µM): 0.31%

Compound: CC1(O)CCCC1n1c(=O)c(C(F)F)cc2cnc(NC3CCN(S(C)(=O)=O)CC3)nc21 (stereo unspecified)
- viability, T/C (compound 0.0316 µM): 108% [middle of 4 runs]
- viability, T/C (compound 0.1 µM): 114% [middle of 4 runs]
- viability, T/C (compound 3.16 µM): 83.6% [middle of 4 runs]
- viability, T/C (compound 10 µM): 2.71% [middle of 4 runs]
- IC50 (curve of compound): 4.81 µM [middle of 4 runs]
